pIC50: −log10 of the molar value. Where a name gives a salt, the structure may show the parent alone.

One experiment concerns Plasmodium falciparum: 3D7 strain. The experiment is described as follows: P. falciparum 3D7 asexual blood stage assay (SYBR green readout). It counts as cell-based. Conditions: Plasmodium falciparum, 3D7, Erythrocyte, 72 h, P. falciparum 3D7 in human erythrocytes, 72 h incubation, SYBR green fluorescence. The source says: The compounds of the present invention are potent inhibitors of the growth and propagation of the Plasmodium falciparum parasite in human blood.
The assay used to measure the effect of test compounds on a bloodstream stage of Plasmodium falciparum: 3D7 strain employs SYBR green as the readout. This is a dye that binds to double stranded deoxyribonucleic acid (DNA) with a resulting increase in fluorescence, allowing detection of P. falciparum DNA in infected erythrocytes, and thereby providing a measure of parasite growth and propagation.
Erythrocytes (A+blood) were prepared for both parasite culture and assay by washing 4 times with incomplete media (15.9 g RPMI 1640 (25 mM HEPES, L-glutamine), 1 g NaHCO3, 2 g glucose, 400 μL gentacin (500 mg/mL), 2 mL hypoxanthine solution (13.6 g/L in 0.1M NaOH pH 7.3) in 1 litre of media). The cells were centrifuged at 1800 g for 5 minutes, before decanting the supernatant and re-suspending in fresh incomplete media. On the final wash, the cells were re-suspended in complete media (incomplete media with 5 g/L AlbumaxII), and centrifuged at 1800 g for 3 minutes. This cell sediment was treated as 100% haematocrit.
P. falciparum 3D7 was cultured in erythrocytes at 5% haematocrit in complete media at 37° C. (1% O2, 3% CO2, balance N2). Cultures were split on a weekly basis to achieve a 1% parasitaemia in erythrocites at 5% haematocrit in fresh media. Culture media is replaced by fresh media every other day (2 times during the week).
On day 1, test compounds were added to assay plates using Echo dispensing technology ([…] and 20 points titration). 50 nL of each compound dilution was added to 50 μL of culture (5% haematocrit, 0.5% parasitaemia) and incubated for 72 h at 37° C. (1% O2, 3% CO2, balance N2). Final concentrations of test compounds ranged from 50,000 nM to 15 nM, in […].
On day 4, 10 μL SYBR green (Invitrogen S7563 supplied as 10,000×concentrate in DMSO) pre-diluted to 3×concentrate with Lysis buffer (20 mM Tris pH 7.9, 5% EDTA, 0.16% w/v, 1.6% TX100 v/v) was added to the cultures and incubated in the dark, overnight, at room temperature.
On day 5, fluorescent signal was measured using a BioTek plate reader (excitation 485 nm, emission 528 nm). All data were processed using IDBS ActivityBase. Raw data were converted into percent inhibition through linear regression by setting the high inhibition control (mefloquine) as 100% and the no inhibition control (DMSO) as 0%. Quality control criteria for passing plates were as follows: Z′>0.5, S:B>3, % CV(no inhibition control)<15. The formula used to calculate Z′ is: […]
All EC50 curve fitting was undertaken using the following bi-phasic two site dose response using XLfit model 300 (IDBS):
where A=100 minus the top of the upper curve 1 and the bottom of lower curve; B=Hill slope; log(C)=IC50 concentration at lower site; log(D)=IC50 concentration at upper site; x=inhibitor concentration; and y=% inhibition.
For the compound `C[C@@H]1C[C@H](N2C(=N)N[C@](C)(c3cccc(-c4cccc(Cl)c4)c3Cl)CC2=O)CC[C@@H]1O` (relative stereo) [Example 7, (6S)-6-[2-Chloro-3-(3-chloro-phenyl)phenyl]-3-[(1R*,3R*,4S*)-4-hydroxy-3-methylcyclohexyl]-2-imino-6-methylhexahydro-pyrimidin-4-one hydrochloride], the pIC50 is 6.14.

The compound `C[C@H]1C[C@@H](N2C(=N)N[C@](C)(c3cccc(-c4cccc(Cl)c4)c3Cl)CC2=O)CC[C@H]1O` (relative stereo) [Example 8, (6S)-6-[2-Chloro-3-(3-chloro-phenyl)phenyl]-3-[(1S*,3S*,4R*)-4-hydroxy-3-methylcyclohexyl]-2-imino-6-methylhexahydro-pyrimidin-4-one hydrochloride] had a pIC50 of 6.61.

For `CO[C@@H]1C[C@H](N2C(=N)N[C@](C)(c3cccc(-c4ccc(S(C)(=O)=O)cc4F)c3Cl)CC2=O)CCC1(F)F` (relative stereo) [Example 9, (6S)-6-{2-Chloro-3-[2-fluoro-4-(methylsulfonyl)phenyl]phenyl}-3-[(1R*,3R*)-4,4-difluoro-3-methoxycyclohexyl]-2-imino-6-methylhexahydropyrimidin-4-one hydrochloride], the pIC50 was 7.08.

`CO[C@H]1C[C@@H](N2C(=N)N[C@](C)(c3cccc(-c4ccc(S(C)(=O)=O)cc4F)c3Cl)CC2=O)CCC1(F)F` (relative stereo) [Example 10, (6S)-6-{2-Chloro-3-[2-fluoro-4-(methylsulfonyl)phenyl]phenyl}-3-[(1S*,3S*)-4,4-difluoro-3-methoxy-cyclohexyl]-2-imino-6-methyl-hexahydropyrimidin-4-one hydrochloride] showed a pIC50 of 8.22.

For the compound `CO[C@@H]1C[C@H](N2C(=N)N[C@](C)(c3cccc(-c4ccc(N=S(C)(C)=O)cc4F)c3Cl)CC2=O)CCC1(F)F` (relative stereo) [Example 11, (6S)-6-[2-Chloro-3-(4-{[(dimethyl)-(oxo)-λ^6-sulfanylidene]amino}-2-fluorophenyl)phenyl]-3-[(1R*,3R*)-4,4-difluoro-3-methoxycyclohexyl]-2-imino-6-methylhexahydropyrimidin-4-one hydrochloride], the pIC50 is 6.44.

Compound `CO[C@H]1C[C@@H](N2C(=N)N[C@](C)(c3cccc(-c4ccc(N=S(C)(C)=O)cc4F)c3Cl)CC2=O)CCC1(F)F` (relative stereo) [Example 12, (6S)-6-[2-Chloro-3-(4-{[(dimethyl)-(oxo)-λ^6-sulfanylidene]amino}-2-fluorophenyl)phenyl]-3-[(1S*,3S*)-4,4-difluoro-3-methoxy-cyclohexyl]-2-imino-6-methyl-hexahydropyrimidin-4-one hydrochloride] showed a negative-log IC50 (pIC50) of 6.44.

`C[C@@]1(c2cccc(-c3cccc(Cl)c3)c2Cl)CC(=O)N([C@H]2CCC(F)(F)[C@@H](O)C2)C(=N)N1` (relative stereo) [Example 21, (S)-6-[2,3′-Dichloro(1,1′-biphenyl)-3-yl]-3-[(1S*,3S*)-4,4-difluoro-3-hydroxycyclohexyl]-2-imino-6-methyltetrahydropyrimidin-4(1H)-one trifluoroacetic acid salt] showed a pIC50 of 6.14.

The compound `C[C@@]1(c2cccc(-c3cccc(Cl)c3)c2Cl)CC(=O)N([C@@H]2CCC(F)(F)[C@H](O)C2)C(=N)N1` (relative stereo) [Example 22, (S)-6-[2,3′-Dichloro(1,1′-biphenyl)-3-yl]-3-[(1R*,3R*)-4,4-difluoro-3-hydroxycyclohexyl]-2-imino-6-methyltetrahydropyrimidin-4(1H)-one trifluoroacetic acid salt] had a pIC50 of 6.81.

`C[C@@]1(c2cccc(-c3cncc(Cl)c3)c2Cl)CC(=O)N([C@@H]2CCC(F)(F)[C@H](O)C2)C(=N)N1` (relative stereo) [Example 23, (6S)-6-[2-Chloro-3-(5-chloro-pyridin-3-yl)phenyl]-3-[(1R*,3R*)-4,4-difluoro-3-hydroxycyclohexyl]-2-imino-6-methylhexahydro-pyrimidin-4-one hydrochloride] had a pIC50 of 6.80.

With `C[C@@]1(c2cccc(-c3cccc(Cl)c3)c2Cl)CC(=O)N([C@@H]2CCC(F)(F)[C@@H](O)C2)C(=N)N1` (relative stereo) [Example 24, (6S)-6-[2-Chloro-3-(3-chloro-phenyl)phenyl]-3-[(1R*,3S*)-4,4-difluoro-3-hydroxycyclohexyl]-2-imino-6-methylhexahydro-pyrimidin-4-one trifluoroacetic acid salt], the pIC50 was 6.95.

The compound `C[C@@H]1C[C@H](N2C(=N)N[C@](C)(c3cccc(-c4ccc(F)cc4F)c3Cl)CC2=O)CCS1(=O)=O` (relative stereo) [Example 63, (6S)-6-[2-Chloro-3-(2,4-difluoro-phenyl)phenyl]-2-imino-6-methyl-3-[(2R*,4R*)-2-methyl-1,1-dioxo-thian-4-yl]hexahydropyrimidin-4-one hydrochloride] had a pIC50 of 7.13.

For `C[C@H]1C[C@@H](N2C(=N)N[C@](C)(c3cccc(-c4ccc(F)cc4F)c3Cl)CC2=O)CCS1(=O)=O` (relative stereo) [Example 64, (6S)-6-[2-Chloro-3-(2,4-difluoro-phenyl)phenyl]-2-imino-6-methyl-3-[(2S*,4S*)-2-methyl-1,1-dioxo-thian-4-yl]hexahydropyrimidin-4-one hydrochloride], the pIC50 was 6.68.

With `C[C@H]1C[C@H](N2C(=N)N[C@](C)(c3cccc(-c4ccc(F)cc4F)c3Cl)CC2=O)CCS1(=O)=O` (relative stereo) [Example 65, (6S)-6-[2-Chloro-3-(2,4-difluoro-phenyl)phenyl]-2-imino-6-methyl-3-[(2S*,4R*)-2-methyl-1,1-dioxo-thian-4-yl]hexahydropyrimidin-4-one hydrochloride], the pIC50 was 5.88.

In turn, `C[C@@H]1C[C@@H](N2C(=N)N[C@](C)(c3cccc(-c4ccc(F)cc4F)c3Cl)CC2=O)CCS1(=O)=O` (relative stereo) [Example 66, (6S)-6-[2-Chloro-3-(2,4-difluoro-phenyl)phenyl]-2-imino-6-methyl-3-[(2R*,4S*)-2-methyl-1,1-dioxo-thian-4-yl]hexahydropyrimidin-4-one hydrochloride] gave a pIC50 of 6.57.

As for `C[C@H]1C[C@@H](N2C(=N)N[C@](C)(c3cccc(-c4ccc(C5CC5)nc4)c3Cl)CC2=O)CCS1(=O)=O` (relative stereo) [Example 67, (6S)-6-[2-Chloro-3-(6-cyclopropyl-pyridin-3-yl)phenyl]-2-imino-6-methyl-3-[(2S*,4S*)-2-methyl-1,1-dioxothian-4-yl]hexahydro-pyrimidin-4-one hydrochloride], the pIC50 is 7.06.

The same experiment, now with this note: Plasmodium falciparum, Erythrocyte; P. falciparum 3D7 in human erythrocytes, 72 h incubation, SYBR green fluorescence; read-out: IC50.
Take `C[C@H]1C[C@@H](N2C(=N)N[C@](C)(c3cccc(-c4cccc([C@@H](O)C(F)(F)F)c4)c3Cl)CC2=O)CCO1` (relative stereo) [Example 27, (6S)-6-(2-Chloro-3-{3-[(1R*)-2,2,2-trifluoro-1-hydroxyethyl]-phenyl}phenyl)-2-imino-6-methyl-3-[(2S,4S)-2-methyltetrahydro-pyran-4-yl|hexahydropyrimidin-4-one hydrochloride]: the pIC50 was 7.36.

In general, pIC50 refers to the negative decadic logarithm of the IC50, by convention in mol/L.
